Reference: patent publication US10501479B2, “Benzenesulfonyl-asymmetric ureas and medical uses thereof” (HELSINN HEALTHCARE SA, priority 2016, dated 2019)
Where two headings read alike, the source gives them in different places.

Key:
[1] = biological target: T1, recombinant human ghrelin receptor (HEK293/GRLN) (Homo sapiens, UniProt Q92847); assay: Ghrelin inverse agonist potency (EC50) with IP-1 (IP-One HTRF) assay; format: cell-based; settings: IP-1 assay
T1 construct: expressed in transfected cells
T1 sequence (Q92847 whole entry): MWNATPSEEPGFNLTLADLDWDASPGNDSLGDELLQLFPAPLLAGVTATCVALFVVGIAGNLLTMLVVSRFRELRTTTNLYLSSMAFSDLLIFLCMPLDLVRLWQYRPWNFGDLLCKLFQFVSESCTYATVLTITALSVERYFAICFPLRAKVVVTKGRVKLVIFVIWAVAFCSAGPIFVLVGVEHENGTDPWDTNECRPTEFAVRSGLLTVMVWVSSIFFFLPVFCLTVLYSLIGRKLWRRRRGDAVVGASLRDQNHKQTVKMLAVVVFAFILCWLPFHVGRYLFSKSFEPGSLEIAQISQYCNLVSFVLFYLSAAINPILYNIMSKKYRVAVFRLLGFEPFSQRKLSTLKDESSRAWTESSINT
Summary of the method: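 IP-1 accumulation was measured by HTRF (IP1-d2/Tb-cryptate, 620/665 nm read after 1 hour at room temperature) following 1 hour of compound treatment at 37° C. Cells were HEK293 stably expressing human ghrelin receptor, plated a day earlier on Matrigel. Inverse agonist potency was reported as EC50.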

[2] = biological target: T2, GHSR-1a (HEK293/GHSR1a cell line) (Homo sapiens, UniProt Q92847); assay: Ghrelin agonist potency (EC50) with calcium FLIPR assay; format: cell-based
T2 construct: expressed in transfected cells; host or cells: HEK293/GHSR1a cell line
T2 sequence (Q92847 whole entry): as above
Summary of the method: (§1)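 In this assay, compound alone assesses agonism, while compound co-added with ghrelin at 10 nM assesses antagonism. In both modes the calcium-dye signal is tracked for 2 min from t=20 sec.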

[3] = biological target: T2, GHSR-1a (HEK293/GHSR1a cell line); assay: Ghrelin antagonist potency (IC50) with calcium FLIPR assay, ghrelin 10 nM; format: cell-based
Summary of the method: as §1

[4] = Metabolic stability in human liver microsomes; format: in vitro ADME
Summary of the method: (§2)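 Loss of parent over time in microsomal incubations at 37 °C with NADPH regeneration, sampled up to 90 min and read by LC-MS/MS.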

[5] = Metabolic stability in mouse liver microsomes; format: in vitro ADME
Summary of the method: as §2

[6] = HEK293/GRLN, read-out: Activity EC50 (ghrelin inverse agonist potency)
[7] = HEK293/GHSR1a, read-out: Activity EC50/EMax: EC50 (ghrelin agonist potency)
[8] = HEK293/GHSR1a, ghrelin 10 nM, read-out: Activity IC50 (ghrelin antagonist potency)
[9] = ghrelin inverse agonist potency, read-out: Activity EC50
[10] = ghrelin agonist potency, read-out: Activity EC50/EMax
[11] = ghrelin antagonist potency, read-out: Activity IC50

Row | Structure (SMILES) | EC50 [1, 6] | EC50 [2, 7] | IC50 [3, 8] | Metabolic Stability Study H = human [4] | Metabolic Stability Study M = mouse [5] | EC50 [1, 9] | EC50 [2, 10] | IC50 [3, 11]
1 | CC(NC(=O)Nc1ccc(S(=O)(=O)Cc2ccc3c(c2)CNC3)cc1)c1cc(F)cc(F)c1 (stereo not shown) [H1445, 1-(1-(3,5-difluorophenyl)ethyl)-3-(4-((isoindolin-5-ylmethyl)sulfonyl)phenyl)urea] | 3.9 nM | > 30000 nM | 23.8 nM | 19.4 µL/min/mg | 17.3 µL/min/mg | – | – | –
2 | COc1cc(NC(=O)N(O)C(C)c2ccccc2)ccc1S(=O)(=O)Cc1ccc2c(c1)CNC2 (stereo not shown) [H1515, 1-hydroxy-3-(4-((isoindolin-5-ylmethyl)sulfonyl)-3-methoxyphenyl)-1-(1-phenylethyl)urea] | – | – | – | 15.2 µL/min/mg | 18.4 µL/min/mg | 9.6 nM | > 30000 nM | 15.7 nM
3 | C[C@H](NC(=O)Nc1ccc(S(=O)(=O)Cc2ccc3c(c2)CN(C)CC3)cc1)c1ccccc1 [H1311, (S)-1-(4-(((2-methyl-1,2,3,4-tetrahydroisoquinolin-7-yl)methyl)sulfonyl)phenyl)-3-(1-phenylethyl)urea] | 84.6 nM | > 30000 nM | 108 nM | 95.9 µL/min/mg | 123.8 µL/min/mg | – | – | –
4 | CCc1ccc(Cl)c(C(C)NC(=O)Nc2ccc(S(=O)(=O)Cc3ccc4c(c3)CNC4)cc2)c1 (stereo not shown) [H1281, 1-(1-(2-chloro-5-ethylphenyl)ethyl)-3-(4-((isoindolin-5-ylmethyl)sulfonyl)phenyl)urea] | 15.3 nM | > 30000 nM | 39 nM | 63.8 µL/min/mg | 47.8 µL/min/mg | – | – | –
5 | CC(NC(=O)Nc1ccc(S(=O)(=O)Cc2cc3c(s2)CN(C)CC3)cc1)c1cccc(Cl)c1Cl (stereo not shown) [H1384, 1-(1-(2,3-dichlorophenyl)ethyl)-3-(4-(((6-methyl-4,5,6,7-tetrahydrothieno[2,3-c]pyridin-2-yl)methyl)sulfonyl)phenyl)urea] | 2.4 nM | > 30000 nM | 5.95 nM | 95.1 µL/min/mg | 165.1 µL/min/mg | – | – | –
6 | CC1Cc2cc(CS(=O)(=O)c3ccc(NC(=O)NC(C)c4ccccc4)cc3)ccc2CN1 (stereo not shown) [H1406, 1-(4-(((3-methyl-1,2,3,4-tetrahydroisoquinolin-6-yl)methyl)sulfonyl)phenyl)-3-(1-phenylethyl)urea] | 7.92 nM | > 30000 nM | 85.5 nM | 15 µL/min/mg | 22.2 µL/min/mg | – | – | –
7 | COc1cc(S(=O)(=O)Cc2ccc3c(c2)CC(C)N(C)C3)ccc1NC(=O)NC(C)c1cccc(Cl)c1Cl (stereo not shown) [H1431, 1-(1-(2,3-dichlorophenyl)ethyl)-3-(4-(((2,3-dimethyl-1,2,3,4-tetrahydroisoquinolin-6-yl)methyl)sulfonyl)-2-methoxyphenyl)urea] | 0.657 nM | > 30000 nM | 4.54 nM | 99.7 µL/min/mg | 135.7 µL/min/mg | – | – | –
8 | COc1cc(S(=O)(=O)Cc2ccc3c(c2)CCN(C)C3)ccc1NC(=O)N(O)C(C)c1cccc(Cl)c1Cl.O=C(O)C(F)(F)F (stereo not shown) [H1523, 1-(1-(2,3-dichlorophenyl)ethyl)-1-hydroxy-3-(2-methoxy-4-(((2-methyl-1,2,3,4-tetrahydroisoquinolin-6-yl)methyl)sulfonyl)phenyl)urea] | – | – | – | 100.9 µL/min/mg | 155.5 µL/min/mg | 2.1 nM | > 30000 nM | 4.92 nM
9 | CC(NC(=O)Nc1ccc(S(=O)(=O)Cc2ccc3c(c2)CC(C)N(C)C3)cc1)c1ccccc1 (stereo not shown) [H1407, 1-(4-(((2,3-dimethyl-1,2,3,4-tetrahydroisoquinolin-6-yl)methyl)sulfonyl)phenyl)-3-(1-phenylethyl)urea] | 1.45 nM | > 30000 nM | 12.7 nM | 144.4 µL/min/mg | 84.1 µL/min/mg | – | – | –
10 | CN1Cc2ccc(CS(=O)(=O)c3ccc(NC(=O)NC4CCCc5ccccc54)cc3)cc2C1 (stereo not shown) [H1312, 1-(4-(((2-methylisoindolin-5-yl)methyl)sulfonyl)phenyl)-3-(1,2,3,4-tetrahydronaphthalen-1-yl)urea] | 85.8 nM | > 30000 nM | 69 nM | 93.5 µL/min/mg | 117.5 µL/min/mg | – | – | –
11 | COc1cc(S(=O)(=O)Cc2ccc3c(c2)CNC3)ccc1NC(=O)NC(C)c1c(F)cccc1F (stereo not shown) [H1412, 1-(1-(2,6-difluorophenyl)ethyl)-3-(4-((isoindolin-5-ylmethyl)sulfonyl)-2-methoxyphenyl)urea] | 4.3 nM | > 30000 nM | 15.7 nM | 22.5 µL/min/mg | 122.4 µL/min/mg | – | – | –
12 | CC(NC(=O)Nc1ccc(S(=O)(=O)Cc2ccc3c(c2)CN(C)C3)c(O)c1)c1ccccc1.O=C(O)C(F)(F)F (stereo not shown) [H1487, 1-(3-hydroxy-4-(((2-methylisoindolin-5-yl)methyl)sulfonyl)phenyl)-3-(1-phenylethyl)urea] | – | – | – | 26.1 µL/min/mg | 16.9 µL/min/mg | 5.7 nM | > 30000 nM | 18.7 nM
13 | CC(NC(=O)Nc1ccc(S(=O)(=O)Cc2ccc3c(c2)CN(C)C3)cc1)c1ccccc1Cl (stereo not shown) [H1267, 1-(1-(2-chlorophenyl)ethyl)-3-(4-(((2-methylisoindolin-5-yl)methyl)sulfonyl)phenyl)urea] | 4.7 nM | > 30000 nM | 9.2 nM | 109.8 µL/min/mg | 147.8 µL/min/mg | – | – | –
14 | C[C@@H](NC(=O)Nc1ccc(S(=O)(=O)Cc2cc(F)c3c(c2)CN(C)C3)cc1)c1ccccc1 [H1355, (R)-1-(4-(((7-fluoro-2-methylisoindolin-5-yl)methyl)sulfonyl)phenyl)-3-(1-phenylethyl)urea] | 12.9 nM | > 30000 nM | 41 nM | 153.5 µL/min/mg | 304.3 µL/min/mg | – | – | –
15 | CC(NC(=O)Nc1ccc(S(=O)(=O)Cc2cc3c(s2)CCN(C)C3)cc1)c1cccc(Cl)c1Cl (stereo not shown) [H1359, 1-(1-(2,3-dichlorophenyl)ethyl)-3-(4-(((5-methyl-4,5,6,7-tetrahydrothieno[3,2-c]pyridin-2-yl)methyl)sulfonyl)phenyl)urea] | 4 nM | > 30000 nM | 1.5 nM | H = 108.6 M = 108.6 R = not reported D = not reported μL/min/mg | H = 108.6 M = 108.6 R = not reported D = not reported μL/min/mg | – | – | –
16 | CC(NC(=O)Nc1ccc(S(=O)(=O)Cc2ccc3c(c2)CNC3)c(C2CC2)c1)c1ccccc1 (stereo not shown) [H1506, 1-(3-cyclopropyl-4-((isoindolin-5-ylmethyl)sulfonyl)phenyl)-3-(1-phenylethyl)urea] | – | – | – | 49.2 µL/min/mg | 132.5 µL/min/mg | 4.2 nM | > 30000 nM | 2.28 nM
17 | CC(NC(=O)Nc1ccc(S(=O)(=O)Cc2ccc3c(c2)CN(C)C3)cc1)c1c(F)cccc1F (stereo not shown) [H1429, 1-(1-(2,6-difluorophenyl)ethyl)-3-(4-(((2-methylisoindolin-5-yl)methyl)sulfonyl)phenyl)urea] | 7.31 nM | > 30000 nM | 160 nM | 65.2 µL/min/mg | 63.6 µL/min/mg | – | – | –
